{"source": "paper PMC11562494", "about": "(BMC Chemistry, 2024)", "origin": "cited, not measured here", "key": {"S. aureus": {"system": "S. aureus", "settings": "cited from earlier work"}, "WI38 cells": {"system": "WI38 cells", "settings": "read-out: WI-38 IC50 ± SD; normal WI38 cells, MTT; cited from earlier work"}, "E. coli": {"system": "E. coli", "settings": "cited from earlier work"}, "Pseudomonas aeruginosa": {"system": "Pseudomonas aeruginosa", "settings": "cited from earlier work"}, "Escherichia coli": {"system": "Escherichia coli", "settings": "cited from earlier work"}}}
{"smiles": "O=C(O)c1cn(C2CC2)c2cc(N3CCNCC3)c(F)cc2c1=O", "note": "[Cipro., ciprofloxacin]", "values": [{"measurement": "IZ S. aureus", "setting": "S. aureus", "value": 22, "unit": "mm"}, {"measurement": "IC50", "setting": "WI38 cells", "value": "23.9 ± 1.58", "unit": "µM"}]}
{"smiles": "CC1(C)S[C@@H]2[C@H](NC(=O)[C@H](N)c3ccc(O)cc3)C(=O)N2[C@H]1C(=O)O", "note": "[amoxicillin]", "values": [{"measurement": "MIC E. coli", "setting": "E. coli", "value": 0.01, "unit": "µM"}]}
{"smiles": "[H]/N=C(/N)N[C@H]1[C@H](O)[C@@H](O)[C@H](O[C@@H]2O[C@@H](C)[C@](O)(C=O)[C@H]2O[C@@H]2O[C@@H](CO)[C@H](O)[C@@H](O)[C@@H]2NC)[C@@H](N/C(N)=N\\[H])[C@@H]1O", "note": "[streptomycin]", "values": [{"measurement": "IZ Pseudomonas aeruginosa", "setting": "Pseudomonas aeruginosa", "value": 24, "unit": "mm"}, {"measurement": "IZ E. coli", "setting": "Escherichia coli", "value": 25, "unit": "mm"}]}
